Earlier results on 1 molecule are cited in patent publication US8968801B1, “Supplement composition for supporting DNA repair and method of use” (Cellhealth Technologies Ltd., priority 2011, dated 2015).

The subject of the data set is ras-transformed human mammary epithelial cells. As to conditions: eupatilin derived from artemisia plants (Kim D H, et al. 2004).

Regarding `COc1ccc(-c2cc(=O)c3c(O)c(OC)c(O)cc3o2)cc1OC` [eupatilin], the cell cycle arrest entry was “induces cell cycle arrest”.
